In the NIST ThermoML archive (doi:10.1016/j.jct.2019.06.005):
± gives the expanded uncertainty stated by the source.

Experiments:
[1] = for surface tension liquid-gas: Maximal bubble pressure; for mass density: 100 kPa, Liquid, Vibrating tube method
[2] = xn = mol fraction of the nth substance listed; details: x2 = 0; for surface tension liquid-gas: Maximal bubble pressure; for mass density: 100 kPa, Liquid, Vibrating tube method

Row | SMILES | surface tension liquid-gas ([1]; 288.15 K) [mN/m] | mass density ([1]; 288.15 K) [kg/m3] | surface tension liquid-gas ([1]; 293.15 K) [mN/m] | mass density ([1]; 293.15 K) [kg/m3] | surface tension liquid-gas ([1]; 298.15 K) [mN/m] | mass density ([1]; 298.15 K) [kg/m3] | surface tension liquid-gas ([1]; 303.15 K) [mN/m] | mass density ([1]; 303.15 K) [kg/m3] | surface tension liquid-gas ([1]; 308.15 K) [mN/m] | mass density ([1]; 308.15 K) [kg/m3] | surface tension liquid-gas ([1]; 313.15 K) [mN/m] | mass density ([1]; 313.15 K) [kg/m3] | surface tension liquid-gas ([1]; 318.15 K) [mN/m] | mass density ([1]; 318.15 K) [kg/m3] | surface tension liquid-gas ([2]; 288.15 K) [mN/m] | mass density ([2]; 288.15 K) [kg/m3] | surface tension liquid-gas ([2]; 293.15 K) [mN/m] | mass density ([2]; 293.15 K) [kg/m3] | surface tension liquid-gas ([2]; 298.15 K) [mN/m] | mass density ([2]; 298.15 K) [kg/m3] | other results
1 | COCC[n+]1ccn(C)c1.O=S(=O)([N-]S(=O)(=O)C(F)(F)F)C(F)(F)F | 41.4 ± 4.2 | 1515.3 ± 9.4 | 41.2 ± 4.1 | 1510.15 ± 9.4 | 41 ± 4.1 | 1505.03 ± 9.4 | 40.7 ± 4.1 | 1499.92 ± 9.3 | 40.5 ± 4.1 | 1494.83 ± 9.3 | 40.3 ± 4 | 1489.77 ± 9.3 | 40.1 ± 4 | 1484.72 ± 9.2 |  |  |  |  |  |  | 
2 | CCO [ethanol] + COCC[n+]1ccn(C)c1.O=S(=O)([N-]S(=O)(=O)C(F)(F)F)C(F)(F)F |  |  |  |  |  |  |  |  |  |  |  |  |  |  | 23.3 ± 2.3 | 793.91 ± 4.9 | 22.7 ± 2.3 | 789.66 ± 4.9 | 22.2 ± 2.2 | 785.73 ± 4.9 | surface tension liquid-gas ([2]; 303.15 K): 21.6 ± 2.2 mN/m; mass density ([2]; 303.15 K): 781.05 ± 4.8 kg/m3; surface tension liquid-gas ([2]; 308.15 K): 21.1 ± 2.1 mN/m; mass density ([2]; 308.15 K): 776.7 ± 4.8 kg/m3; surface tension liquid-gas ([2]; 313.15 K): 20.7 ± 2.1 mN/m; mass density ([2]; 313.15 K): 772.31 ± 4.8 kg/m3; surface tension liquid-gas ([2]; 318.15 K): 20 ± 2 mN/m; mass density ([2]; 318.15 K): 767.88 ± 4.8 kg/m3
3 | CO [methanol] | 24.4 ± 2.4 | 796.037 ± 4.9 | 23.8 ± 2.4 | 791.352 ± 4.9 | 22.9 ± 2.3 | 786.643 ± 4.9 | 22.3 ± 2.2 | 781.913 ± 4.8 | 21.8 ± 2.2 | 777.16 ± 4.8 | 21.1 ± 2.1 | 772.38 ± 4.8 | 20.5 ± 2.1 | 767.567 ± 4.8 |  |  |  |  |  |  | 
4 | CO [methanol] + COCC[n+]1ccn(C)c1.O=S(=O)([N-]S(=O)(=O)C(F)(F)F)C(F)(F)F |  |  |  |  |  |  |  |  |  |  |  |  |  |  | 24.4 ± 2.4 | 796.037 ± 4.9 | 23.8 ± 2.4 | 791.352 ± 4.9 | 22.9 ± 2.3 | 786.643 ± 4.9 | surface tension liquid-gas ([2]; 303.15 K): 22.3 ± 2.2 mN/m; mass density ([2]; 303.15 K): 781.913 ± 4.8 kg/m3; surface tension liquid-gas ([2]; 308.15 K): 21.8 ± 2.2 mN/m; mass density ([2]; 308.15 K): 777.16 ± 4.8 kg/m3; surface tension liquid-gas ([2]; 313.15 K): 21.1 ± 2.1 mN/m; mass density ([2]; 313.15 K): 772.38 ± 4.8 kg/m3; surface tension liquid-gas ([2]; 318.15 K): 20.5 ± 2.1 mN/m; mass density ([2]; 318.15 K): 767.567 ± 4.8 kg/m3
